According to the supplement of paper PMC10307832:

Experiments:
Experiment in all cases: relative viability (nuclei count vs DMSO), 5 days (fraction); higher = more cells survive
BI-2536 + Luminespib = compound: CC[C@@H]1C(=O)N(C)c2cnc(Nc3ccc(C(=O)NC4CCN(C)CC4)cc3OC)nc2N1C1CCCC1 [BI-2536] + CCNC(=O)c1noc(-c2cc(C(C)C)c(O)cc2O)c1-c1ccc(CN2CCOCC2)cc1 [Luminespib] (partner 0.01 µM)
Procedure, shortened: (§1)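 Lung cancer cell lines in 1536-well plates were dosed by pin tool the day after seeding, either with one drug alone or with a fixed anchor-drug dose plus five library-drug doses (not always all listed) in √10 steps. After 5 days, cells were fixed and their nuclei stained in one step (final 0.05% Triton X-100, 1% formaldehyde, 1 ug/ml Hoechst), then counted on 4× images. Relative viability is the nuclei count in treated wells divided by that in vehicle wells. Values are medians of duplicate plates.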

BI-2536 + Olaparib = compound: CC[C@@H]1C(=O)N(C)c2cnc(Nc3ccc(C(=O)NC4CCN(C)CC4)cc3OC)nc2N1C1CCCC1 [BI-2536] + O=C(c1cc(Cc2n[nH]c(=O)c3ccccc23)ccc1F)N1CCN(C(=O)C2CC2)CC1 [Olaparib] (partner 8 µM)
Procedure, shortened: as §1

BI-2536 + Tozasertib = compound: CC[C@@H]1C(=O)N(C)c2cnc(Nc3ccc(C(=O)NC4CCN(C)CC4)cc3OC)nc2N1C1CCCC1 [BI-2536] + Cc1cc(Nc2cc(N3CCN(C)CC3)nc(Sc3ccc(NC(=O)C4CC4)cc3)n2)n[nH]1 [Tozasertib] (partner 0.1 µM)
Procedure, shortened: as §1

[1] = compound: CC1CC(=O)N(C2=CN=C(N=C2N1C3CCCC3)NC4=C(C=C(C=C4)C(=O)NC5CCN(CC5)C)OC)C [NPK76-II-72-1] + O=C(CCCCCCC(=O)Nc1ccccc1)NO [Vorinostat] (partner 1 µM)
Procedure, shortened: as §1

Cell Line | relative viability (BI-2536 + Luminespib; first compound 0.01 µM) | relative viability (BI-2536 + Luminespib; first compound 0.03162 µM) | relative viability (BI-2536 + Luminespib; first compound 0.1 µM) | relative viability (BI-2536 + Luminespib; first compound 0.3162 µM) | relative viability (BI-2536 + Luminespib; first compound 1 µM) | relative viability (BI-2536 + Olaparib; first compound 0.01 µM) | relative viability (BI-2536 + Olaparib; first compound 0.03162 µM) | relative viability (BI-2536 + Olaparib; first compound 0.1 µM) | relative viability (BI-2536 + Olaparib; first compound 0.3162 µM) | relative viability (BI-2536 + Olaparib; first compound 1 µM) | relative viability (BI-2536 + Tozasertib; first compound 0.01 µM) | relative viability (BI-2536 + Tozasertib; first compound 0.03162 µM) | relative viability (BI-2536 + Tozasertib; first compound 0.1 µM) | relative viability (BI-2536 + Tozasertib; first compound 0.3162 µM) | relative viability (BI-2536 + Tozasertib; first compound 1 µM) | relative viability ([1]; first compound 0.01 µM) | relative viability ([1]; first compound 0.03162 µM) | relative viability ([1]; first compound 0.1 µM) | relative viability ([1]; first compound 0.3162 µM) | relative viability ([1]; first compound 1 µM)
201T | 1.02 | 0.999 | 1.05 | 0.349 | 0.318 | 0.879 | 0.796 | 0.853 | 0.382 | 0.205 | 0.996 | 0.925 | 0.93 | 0.41 | 0.388 | 0.803 | 0.989 | 0.93 | 0.962 | 1.14
HCC-44 | 1.03 | 0.261 | 0.204 | 0.104 | 0.12 | 1.05 | 1 | 0.952 | 0.378 | 0.33 | 0.967 | 0.333 | 0.262 | 0.143 | 0.216 | 1.08 | 1.22 | 1.11 | 1.09 | 1.1
NCI-H596 | 1.02 | 1.12 | 0.986 | 0.37 | 0.29 | 0.731 | 0.731 | 0.59 | 0.423 | 0.295 | 0.913 | 1.12 | 0.769 | 0.267 | 0.247 | 0.718 | 0.615 | 0.696 | 0.631 | 0.723
H3255 | 0.846 | 1.13 | 0.691 | 0.239 | 0.359 | 0.529 | 0.401 | 0.406 | 0.298 | 0.275 | 0.569 | 0.507 | 0.586 | 0.196 | 0.224 | 0.873 | 0.605 | 0.722 |  | 0.797
NCI-H647 | 0.13 | 0.193 | 0.141 | 0.0872 | 0.116 | 0.481 | 0.281 | 0.107 | 0.0584 | 0.0662 | 0.34 | 0.433 | 0.209 | 0.132 | 0.103 | 0.575 | 0.568 | 0.4 | 0.668 | 0.725
NCI-H2023 | 0.774 | 0.755 | 0.107 | 0.0867 | 0.0902 | 0.426 | 0.338 | 0.13 | 0.0876 | 0.0937 | 0.389 | 0.461 | 0.234 | 0.11 | 0.108 | 0.504 | 0.655 | 0.69 | 0.563 | 0.614
NCI-H23 | 0.231 | 0.212 | 0.182 | 0.225 | 0.236 | 0.307 | 0.318 | 0.212 | 0.117 | 0.104 | 0.331 | 0.458 | 0.182 | 0.142 | 0.141 | 0.609 | 0.657 | 0.637 | 0.515 | 0.627
NCI-H1944 | 0.694 | 0.794 | 0.863 | 0.107 | 0.136 | 0.385 | 0.389 | 0.297 | 0.164 | 0.147 | 0.25 | 0.268 | 0.234 | 0.234 | 0.195 | 0.49 | 0.583 | 0.508 | 0.485 | 0.646
